From publication PMC5858560 (Toxicology and applied pharmacology, 2011)

Tests used:
human iPSC-CMs [1] = experiment: ATP depletion; assay type: cell-based; conditions: for TC50 based on dose–response data for ATP depletion: human iPSC-CMs, 24 h treatment; for depletion of ATP: 31 µM sunitinib; for attenuation of sunitinib-mediated ATP depletion: 3 h pretreatment with 1 or 2 mM, then 8 to 31 µM sunitinib for 24 h
human iPSC-CMs [2] = experiment: Microelectrode array; assay type: cell-based; conditions: MEA; for change of beat rate from baseline: up to 2 mM
human iPSC-CMs [3] = experiment: Cytotoxicity dose response; assay type: cell-based; conditions: for concentration without cytotoxicity (no ATP depletion or LDH release): 4 to 250 µM tested, 24 h
Nav1.5 channel = Nav1.5 channel (Homo sapiens, UniProt Q14524); experiment: PatchXpress Nav1.5 channel assay in CHL-Nav1.5 cells; assay type: cell-based; conditions: read-out: IC50 of Nav1.5 channel inhibition
317 kinases = conditions: at 0.1 µM; ref Karaman et al., 2008; cited from earlier work
PLK4 = PLK4 (Homo sapiens, UniProt O00444); experiment: KINOMEscan; assay type: binding; conditions: read-out: % Inhibition AMBIT, PLK4
RPS6KA1 (Kin. Dom.1) = RPS6KA1 (Kin. Dom.1) (Homo sapiens, UniProt Q15418); experiment: KINOMEscan; assay type: binding; conditions: read-out: % Inhibition AMBIT, RPS6KA1 (Kin. Dom.1)
RPS6KA2 (Kin. Dom.1) = RPS6KA2 (Kin. Dom.1) (Homo sapiens, UniProt Q15349); experiment: KINOMEscan; assay type: binding; conditions: read-out: % Inhibition AMBIT, RPS6KA2 (Kin. Dom.1)
RPS6KA2 (Kin. Dom.1), sequence (Q15349 1-388 limits assumed): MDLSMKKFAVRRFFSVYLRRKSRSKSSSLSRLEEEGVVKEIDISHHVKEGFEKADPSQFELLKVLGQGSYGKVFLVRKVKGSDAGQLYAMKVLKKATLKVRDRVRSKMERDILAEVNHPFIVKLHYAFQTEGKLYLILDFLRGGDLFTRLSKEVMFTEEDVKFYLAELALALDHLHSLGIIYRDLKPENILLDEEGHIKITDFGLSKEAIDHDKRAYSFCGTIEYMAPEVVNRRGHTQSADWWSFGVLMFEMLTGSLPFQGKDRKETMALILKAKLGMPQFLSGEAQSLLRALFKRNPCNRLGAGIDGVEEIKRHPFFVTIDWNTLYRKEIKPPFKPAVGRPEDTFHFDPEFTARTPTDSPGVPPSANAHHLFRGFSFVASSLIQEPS

RPS6KA6 (Kin. Dom.1) = RPS6KA6 (Kin. Dom.1) (Homo sapiens, UniProt Q9UK32); experiment: KINOMEscan; assay type: binding; conditions: read-out: % Inhibition AMBIT, RPS6KA6 (Kin. Dom.1)
RPS6KA6 (Kin. Dom.1), sequence (Q9UK32 1-400 limits assumed): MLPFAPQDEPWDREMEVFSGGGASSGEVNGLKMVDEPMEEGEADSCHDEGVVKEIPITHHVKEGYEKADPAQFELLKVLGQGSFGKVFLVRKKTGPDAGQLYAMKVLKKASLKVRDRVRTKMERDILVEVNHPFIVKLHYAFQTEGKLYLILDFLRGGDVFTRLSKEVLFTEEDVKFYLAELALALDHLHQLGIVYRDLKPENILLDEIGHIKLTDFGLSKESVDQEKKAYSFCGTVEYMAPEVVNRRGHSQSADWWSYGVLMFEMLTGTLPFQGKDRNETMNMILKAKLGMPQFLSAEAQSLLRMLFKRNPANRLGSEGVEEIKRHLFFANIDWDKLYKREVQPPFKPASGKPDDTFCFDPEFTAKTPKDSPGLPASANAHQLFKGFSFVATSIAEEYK

STK11 = STK11 (Homo sapiens, UniProt Q15831); experiment: KINOMEscan; assay type: binding; conditions: read-out: % Inhibition AMBIT, STK11
STK11, sequence (Q15831 whole entry): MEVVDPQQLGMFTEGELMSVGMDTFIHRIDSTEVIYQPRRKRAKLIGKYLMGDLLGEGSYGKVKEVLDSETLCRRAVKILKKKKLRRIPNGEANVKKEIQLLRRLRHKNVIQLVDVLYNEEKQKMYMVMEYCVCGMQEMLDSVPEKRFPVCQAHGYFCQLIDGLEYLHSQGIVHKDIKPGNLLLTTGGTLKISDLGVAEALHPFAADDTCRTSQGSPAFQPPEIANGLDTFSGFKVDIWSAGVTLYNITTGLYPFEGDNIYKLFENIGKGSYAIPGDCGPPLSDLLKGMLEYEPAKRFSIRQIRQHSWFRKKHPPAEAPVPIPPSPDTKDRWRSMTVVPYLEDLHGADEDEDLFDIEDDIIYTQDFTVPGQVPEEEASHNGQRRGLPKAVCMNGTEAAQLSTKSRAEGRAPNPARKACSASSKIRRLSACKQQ

AURORA C KINASE = AURORA C KINASE (Homo sapiens, UniProt Q9UQB9); experiment: KINOMEscan; assay type: binding; conditions: read-out: % Inhibition AMBIT, AURORA C KINASE
AURORA C KINASE, sequence (Q9UQB9 whole entry): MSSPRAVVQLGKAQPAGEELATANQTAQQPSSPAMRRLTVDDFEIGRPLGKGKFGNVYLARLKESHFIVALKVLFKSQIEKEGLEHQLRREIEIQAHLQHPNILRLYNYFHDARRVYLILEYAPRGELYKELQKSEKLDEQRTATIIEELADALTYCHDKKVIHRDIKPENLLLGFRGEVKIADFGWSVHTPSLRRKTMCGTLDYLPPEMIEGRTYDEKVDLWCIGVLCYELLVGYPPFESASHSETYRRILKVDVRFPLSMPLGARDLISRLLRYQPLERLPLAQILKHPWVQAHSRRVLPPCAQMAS

ERBB4 = ERBB4 (Homo sapiens, UniProt Q15303); experiment: KINOMEscan; assay type: binding; conditions: read-out: % Inhibition AMBIT, ERBB4
AKT3 = AKT3 (Homo sapiens, UniProt Q9Y243); experiment: KINOMEscan; assay type: binding; conditions: read-out: % Inhibition AMBIT, AKT3
PDGFR-beta = PDGFR-beta (Homo sapiens, UniProt P09619); experiment: KINOMEscan; assay type: binding; conditions: read-out: % Inhibition AMBIT, PDGFR-beta
ERBB2 = ERBB2 (Homo sapiens, UniProt P04626); experiment: KINOMEscan; assay type: binding; conditions: read-out: % Inhibition AMBIT, ERBB2
PIM2 = PIM2 (Homo sapiens, UniProt Q9P1W9); experiment: KINOMEscan; assay type: binding; conditions: read-out: % Inhibition AMBIT, PIM2
RPS6KA6 (Kin. Dom.2) = RPS6KA6 (Kin. Dom.2) (Homo sapiens, UniProt Q9UK32); experiment: KINOMEscan; assay type: binding; conditions: read-out: % Inhibition AMBIT, RPS6KA6 (Kin. Dom.2)
RPS6KA6 (Kin. Dom.2), sequence (Q9UK32 426-683 limits assumed): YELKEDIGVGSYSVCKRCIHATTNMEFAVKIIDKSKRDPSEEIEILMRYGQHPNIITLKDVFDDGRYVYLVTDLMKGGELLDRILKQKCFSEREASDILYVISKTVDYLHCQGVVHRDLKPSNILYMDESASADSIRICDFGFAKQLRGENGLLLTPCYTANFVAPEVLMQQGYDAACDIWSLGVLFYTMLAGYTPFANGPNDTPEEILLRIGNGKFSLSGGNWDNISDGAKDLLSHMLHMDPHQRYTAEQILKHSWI

DMPK = DMPK (Homo sapiens, UniProt Q09013); experiment: KINOMEscan; assay type: binding; conditions: read-out: % Inhibition AMBIT, DMPK
PLK3 = PLK3 (Homo sapiens, UniProt Q9H4B4); experiment: KINOMEscan; assay type: binding; conditions: read-out: % Inhibition AMBIT, PLK3
AMPK-alpha1 = AMPK-alpha1 (Homo sapiens, UniProt Q13131); experiment: KINOMEscan; assay type: binding; conditions: read-out: % Inhibition AMBIT, AMP_K-alpha1
AMPK-alpha2 = AMPK-alpha2 (Homo sapiens, UniProt P54646); experiment: KINOMEscan; assay type: binding; conditions: read-out: % Inhibition AMBIT, AMPK-alpha2
CDK7 = CDK7 (Homo sapiens, UniProt P50613); experiment: KINOMEscan; assay type: binding; conditions: read-out: % Inhibition AMBIT, CDK7
RSK1 = conditions: read-out: IC50 RSK1; kinase activity assay; ref Hasinoff et al., 2008; cited from earlier work
AURORA A KINASE = AURORA A KINASE (Homo sapiens, UniProt O14965); experiment: KINOMEscan; assay type: binding; conditions: read-out: % Inhibition AMBIT, AURORA A KINASE
AURORA A KINASE, sequence (O14965 whole entry): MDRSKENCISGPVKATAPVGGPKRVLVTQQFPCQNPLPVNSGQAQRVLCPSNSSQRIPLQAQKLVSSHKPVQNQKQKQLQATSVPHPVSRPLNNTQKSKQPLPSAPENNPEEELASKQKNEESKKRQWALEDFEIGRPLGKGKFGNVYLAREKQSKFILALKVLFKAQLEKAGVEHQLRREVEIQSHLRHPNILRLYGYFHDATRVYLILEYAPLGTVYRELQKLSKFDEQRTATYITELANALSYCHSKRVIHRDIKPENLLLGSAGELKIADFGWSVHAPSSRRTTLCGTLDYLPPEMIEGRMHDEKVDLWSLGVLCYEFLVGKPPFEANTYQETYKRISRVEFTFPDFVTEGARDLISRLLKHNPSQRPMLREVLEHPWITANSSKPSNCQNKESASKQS

RAF = RAF (Homo sapiens, UniProt P04049); experiment: KINOMEscan; assay type: binding; conditions: read-out: % Inhibition AMBIT, RAF
RAF, sequence (P04049 whole entry): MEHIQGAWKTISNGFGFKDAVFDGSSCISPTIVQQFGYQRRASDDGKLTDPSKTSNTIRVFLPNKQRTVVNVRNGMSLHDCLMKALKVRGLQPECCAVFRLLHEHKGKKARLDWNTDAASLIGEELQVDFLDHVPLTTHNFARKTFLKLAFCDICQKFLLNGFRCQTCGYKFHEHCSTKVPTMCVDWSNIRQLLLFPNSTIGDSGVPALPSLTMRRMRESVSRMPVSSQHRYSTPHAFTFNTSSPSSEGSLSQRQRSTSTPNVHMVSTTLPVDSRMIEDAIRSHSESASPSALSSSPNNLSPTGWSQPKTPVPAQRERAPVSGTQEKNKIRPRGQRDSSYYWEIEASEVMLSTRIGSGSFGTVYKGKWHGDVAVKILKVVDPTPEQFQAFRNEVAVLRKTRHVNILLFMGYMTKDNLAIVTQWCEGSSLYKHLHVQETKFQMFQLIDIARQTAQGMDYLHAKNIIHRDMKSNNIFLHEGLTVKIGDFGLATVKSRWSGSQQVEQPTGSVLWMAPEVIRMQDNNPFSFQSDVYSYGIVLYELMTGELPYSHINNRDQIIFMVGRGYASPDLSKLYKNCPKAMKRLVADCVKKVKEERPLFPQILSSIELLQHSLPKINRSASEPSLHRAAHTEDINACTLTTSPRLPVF

ROCK2 = ROCK2 (Homo sapiens, UniProt O75116); experiment: KINOMEscan; assay type: binding; conditions: read-out: % Inhibition AMBIT, ROCK2
human iPSC-CMs [4] = experiment: LDH release in iCell cardiomyocytes; assay type: cell-based
BRAF = BRAF (Homo sapiens, UniProt P15056); experiment: KINOMEscan; assay type: binding; conditions: read-out: % Inhibition AMBIT, BRAF
RPS6KA4 (Kin. Dom.1) = RPS6KA4 (Kin. Dom.1) (Homo sapiens, UniProt O75676); experiment: KINOMEscan; assay type: binding; conditions: read-out: % Inhibition AMBIT, RPS6KA4 (Kin. Dom.1)
FLT4 = FLT4 (Homo sapiens, UniProt P35916); experiment: KINOMEscan; assay type: binding; conditions: read-out: % Inhibition AMBIT, FLT4
MAPK/ERK2 = MAPK/ERK2 (Homo sapiens, UniProt P28482); experiment: KINOMEscan; assay type: binding; conditions: read-out: % Inhibition AMBIT, MAPK/ERK2
human iPSC-CMs [5] = experiment: Caspase 3/7 cleavage; assay type: cell-based; conditions: for maximal attenuation of caspase 3/7 cleavage: 23 µM sunitinib 24 h
GSK3A = GSK3A (Homo sapiens, UniProt P49840); experiment: KINOMEscan; assay type: binding; conditions: read-out: % Inhibition AMBIT, GSK3A
MAP3K5 (ASK1) = MAP3K5 (ASK1) (Homo sapiens, UniProt Q99683); experiment: KINOMEscan; assay type: binding; conditions: read-out: % Inhibition AMBIT, MAP3K5 (ASK1)
PDGFR-alpha = PDGFR-alpha (Homo sapiens, UniProt P16234); experiment: KINOMEscan; assay type: binding; conditions: read-out: % Inhibition AMBIT, PDGFR-alpha
PLK1 = PLK1 (Homo sapiens, UniProt P53350); experiment: KINOMEscan; assay type: binding; conditions: read-out: % Inhibition AMBIT, PLK1
PLK1, sequence (P53350 whole entry): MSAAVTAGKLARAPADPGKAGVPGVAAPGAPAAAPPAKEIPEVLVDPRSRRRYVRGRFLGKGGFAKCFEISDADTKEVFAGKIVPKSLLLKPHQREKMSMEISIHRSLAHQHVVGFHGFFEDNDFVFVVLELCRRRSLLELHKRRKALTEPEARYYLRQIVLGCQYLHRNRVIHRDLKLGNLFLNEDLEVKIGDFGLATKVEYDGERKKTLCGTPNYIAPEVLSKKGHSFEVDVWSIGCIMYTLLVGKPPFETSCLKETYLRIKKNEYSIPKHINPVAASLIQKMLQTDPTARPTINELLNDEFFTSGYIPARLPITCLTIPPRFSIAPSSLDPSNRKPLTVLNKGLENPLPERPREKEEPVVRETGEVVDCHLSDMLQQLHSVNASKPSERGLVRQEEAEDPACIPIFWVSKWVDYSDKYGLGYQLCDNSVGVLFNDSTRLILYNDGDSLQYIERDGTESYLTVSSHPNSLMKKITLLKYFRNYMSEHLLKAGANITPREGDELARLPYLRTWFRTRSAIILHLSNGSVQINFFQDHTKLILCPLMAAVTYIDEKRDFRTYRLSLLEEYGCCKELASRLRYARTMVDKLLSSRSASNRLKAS

AURORA B KINASE = AURORA B KINASE (Homo sapiens, UniProt Q96GD4); experiment: KINOMEscan; assay type: binding; conditions: read-out: % Inhibition AMBIT, AURORA B KINASE
AURORA B KINASE, sequence (Q96GD4 whole entry): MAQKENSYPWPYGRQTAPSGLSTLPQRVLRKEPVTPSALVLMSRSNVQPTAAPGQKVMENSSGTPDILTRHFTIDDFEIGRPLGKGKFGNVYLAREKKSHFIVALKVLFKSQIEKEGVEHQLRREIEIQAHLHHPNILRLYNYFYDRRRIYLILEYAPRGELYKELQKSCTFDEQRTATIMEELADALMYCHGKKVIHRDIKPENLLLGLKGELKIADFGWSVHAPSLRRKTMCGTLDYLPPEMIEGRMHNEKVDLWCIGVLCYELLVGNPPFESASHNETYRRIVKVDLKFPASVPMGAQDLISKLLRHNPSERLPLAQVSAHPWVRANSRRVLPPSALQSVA

GSK3B = GSK3B (Homo sapiens, UniProt P49841); experiment: KINOMEscan; assay type: binding; conditions: read-out: % Inhibition AMBIT, GSK3B
GSK3B, sequence (P49841 whole entry): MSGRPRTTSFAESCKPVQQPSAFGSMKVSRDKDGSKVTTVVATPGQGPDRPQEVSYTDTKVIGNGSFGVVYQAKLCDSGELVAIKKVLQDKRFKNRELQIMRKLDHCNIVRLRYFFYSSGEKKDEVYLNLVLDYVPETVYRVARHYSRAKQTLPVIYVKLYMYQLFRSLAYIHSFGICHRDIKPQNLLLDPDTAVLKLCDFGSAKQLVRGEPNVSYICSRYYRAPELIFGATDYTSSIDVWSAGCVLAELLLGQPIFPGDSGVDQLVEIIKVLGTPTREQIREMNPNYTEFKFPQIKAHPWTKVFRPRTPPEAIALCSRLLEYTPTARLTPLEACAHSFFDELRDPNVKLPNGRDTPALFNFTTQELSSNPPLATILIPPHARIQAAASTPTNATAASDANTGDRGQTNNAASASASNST

RSK1/2/4 = experiment: 10 µM AMBIT screen; assay type: binding
RPS6KA4 (Kin. Dom.2) = RPS6KA4 (Kin. Dom.2) (Homo sapiens, UniProt O75676); experiment: KINOMEscan; assay type: binding; conditions: read-out: % Inhibition AMBIT, RPS6KA4 (Kin. Dom.2)
RPS6KA4 (Kin. Dom.2), sequence (O75676 411-772 limits assumed): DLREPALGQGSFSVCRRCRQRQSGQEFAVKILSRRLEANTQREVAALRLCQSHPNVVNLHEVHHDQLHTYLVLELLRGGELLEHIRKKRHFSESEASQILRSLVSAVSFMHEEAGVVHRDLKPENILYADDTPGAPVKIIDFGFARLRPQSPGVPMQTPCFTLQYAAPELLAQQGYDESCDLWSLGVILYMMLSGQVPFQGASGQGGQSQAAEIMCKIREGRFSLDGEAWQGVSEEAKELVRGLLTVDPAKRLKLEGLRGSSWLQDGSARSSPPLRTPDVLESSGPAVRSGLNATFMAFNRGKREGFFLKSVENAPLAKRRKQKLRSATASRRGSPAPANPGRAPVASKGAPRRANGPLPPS

human iPSC-CMs [6] = experiment: GSH oxidation; assay type: cell-based
PIM1 = PIM1 (Homo sapiens, UniProt P11309); experiment: KINOMEscan; assay type: binding; conditions: read-out: % Inhibition AMBIT, PIM1
PIM1, sequence (P11309 whole entry): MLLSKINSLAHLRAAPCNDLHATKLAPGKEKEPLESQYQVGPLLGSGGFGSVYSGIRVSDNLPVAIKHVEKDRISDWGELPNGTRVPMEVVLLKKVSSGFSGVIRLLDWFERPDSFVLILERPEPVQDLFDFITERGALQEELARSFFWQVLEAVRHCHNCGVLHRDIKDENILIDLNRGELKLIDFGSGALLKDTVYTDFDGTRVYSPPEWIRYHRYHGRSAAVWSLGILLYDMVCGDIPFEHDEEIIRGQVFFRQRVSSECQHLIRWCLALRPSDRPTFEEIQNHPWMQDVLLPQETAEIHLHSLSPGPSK

FLT1 = FLT1 (Homo sapiens, UniProt P17948); experiment: KINOMEscan; assay type: binding; conditions: read-out: % Inhibition AMBIT, FLT1
pACC-S79, pAMPK-T172 = experiment: Western blot of AMPK/ACC signaling in iCell cardiomyocytes; assay type: cell-based, human; conditions: iPSC-CMs; for phosphorylation status of AMPKα-Thr172 and ACC-Ser79: 1 or 2 mM for 3 h
[7] = 23 µM sunitinib, 24 h, iPSC-CMs
[8] = 31 µM sunitinib, 24 h, iPSC-CMs

SMILES: COCCNCCCn1c(C(=O)CF)c(-c2ccc(C)cc2)c2c(N)ncnc21 [RSK FMK-MEA, fluoromethylketone methoxyethylamine]
- TC50 based on dose–response data for ATP depletion (human iPSC-CMs [1]): 250 µM
- concentration with irregular (arrhythmic) beats (human iPSC-CMs [2]; 15 min at each concentration): 3 µM
- amplitude of the Na+-peak (human iPSC-CMs [2]; serially increasing additions): dose-dependent reduction in the amplitude of the Na^+-peak
- fPDc (field-potential duration corrected by beat rate, Fridericia) (human iPSC-CMs [2]; serially increasing additions): dose-dependent prolongation of fPDc
- concentration without cytotoxicity (no ATP depletion or LDH release) (human iPSC-CMs [3]): up to 62 µM
- concentration without cytotoxicity (no ATP depletion or LDH release) (human iPSC-CMs [3]; listed as RSK-FMK-MEA): below 250 µM
- IC50 (Nav1.5 channel): 56.8 µM

SMILES: CCN(CC)CCNC(=O)c1c(C)[nH]c(/C=C2\C(=O)Nc3ccc(F)cc32)c1C [sunitinib, Sunitinib]
- number of kinases bound of the 317 kinases tested (317 kinases): 57
- share of the 317 kinases tested that were bound (317 kinases): 18%
- inhibition at 10 µM (PLK4): 100%
- inhibition at 10 µM (RPS6KA1 (Kin. Dom.1)): 100%
- ATP depleted compared to vehicle (human iPSC-CMs [1]; [7]): greater than 60%
- depletion of ATP (human iPSC-CMs [1]; 24 h, iPSC-CMs): ~100%
- depletion of ATP (human iPSC-CMs [1]; by 4.5 h, iPSC-CMs (unpublished results)): 80%
- TC50 based on dose–response data for ATP depletion (human iPSC-CMs [1]): 16.7 µM
- inhibition at 10 µM (RPS6KA2 (Kin. Dom.1)): 100%
- inhibition at 10 µM (RPS6KA6 (Kin. Dom.1)): 97%
- inhibition at 10 µM (STK11): 100%
- inhibition at 10 µM (AURORA C KINASE): 100%
- inhibition at 10 µM (ERBB4): < 50%
- inhibition at 10 µM (AKT3): < 50%
- inhibition at 10 µM (PDGFR-beta): 100%
- inhibition at 10 µM (ERBB2): < 50%
- inhibition at 10 µM (PIM2): < 50%
- inhibition at 10 µM (RPS6KA6 (Kin. Dom.2)): < 50%
- amplitude of the Na+-peak (human iPSC-CMs [2]; serially increasing additions): dose-dependently reduced the amplitude of the Na^+-peak
- inhibition at 10 µM (DMPK): < 50%
- inhibition at 10 µM (PLK3): < 50%
- inhibition at 10 µM (AMPK-alpha1): 100%
- inhibition at 10 µM (AMPK-alpha2): 99%
- inhibition at 10 µM (CDK7): 100%
- inhibition at 10 µM (AURORA A KINASE): < 50%
- inhibition at 10 µM (RAF): < 50%
- inhibition at 10 µM (ROCK2): 97%
- increase in LDH release compared to vehicle (human iPSC-CMs [4]; [7]): 300%
- release of LDH (human iPSC-CMs [4]; [8]): ~100%
- inhibition at 10 µM (BRAF): < 50%
- inhibition at 10 µM (RPS6KA4 (Kin. Dom.1)): 100%
- inhibition at 10 µM (FLT4): 100%
- inhibition at 10 µM (MAPK/ERK2): < 50%
- cleavage of caspase 3/7 (human iPSC-CMs [5]; [8]): ~100%
- inhibition at 10 µM (GSK3A): < 50%
- inhibition at 10 µM (MAP3K5 (ASK1)): < 50%
- inhibition at 10 µM (PDGFR-alpha): 100%
- inhibition at 10 µM (PLK1): < 50%
- IC50 of cardiotoxicity (loss of cellular ATP, oxidized glutathione, apoptosis) (human iPSC-CMs [3]): low micromolar range
- inhibition at 10 µM (AURORA B KINASE): 100%
- inhibition at 10 µM (GSK3B): < 50%
- inhibition of RSK1/2/4 (RSK1/2/4): 100%
- inhibition at 10 µM (RPS6KA4 (Kin. Dom.2)): 99%
- GSH oxidized compared to vehicle (human iPSC-CMs [6]; [7]): 67%
- oxidation of GSH (human iPSC-CMs [6]; [8]): ~100%
- inhibition at 10 µM (PIM1): < 50%
- inhibition at 10 µM (FLT1): 100%
- inhibition of phosphorylation of AMPK's downstream target ACC-Ser79 (pACC-S79, pAMPK-T172; 15 µM for 2 h): inhibited AMPK
- phosphorylation status of ACC-S79 (pACC-S79, pAMPK-T172; 15.6 µM, 2 h): decreased the phosphorylation status of ACC-S79

SMILES: CN(C)C(=N)N=C(N)N [metformin]
- attenuation of sunitinib-mediated ATP depletion (human iPSC-CMs [1]): Neither AICAR (Fig. 3A) nor metformin (Fig. 3E) attenuated
- change of beat rate from baseline (human iPSC-CMs [2]): ≤ 1%
- maximal attenuation of LDH release (human iPSC-CMs [4]; 1 mM pretreatment 3 h, 23 µM sunitinib 24 h): 90%
- maximal attenuation of caspase 3/7 cleavage (human iPSC-CMs [5]; 1 mM pretreatment 3 h): 107%
- reduction in oxidation of GSH (human iPSC-CMs [6]; 2 mM pretreatment 3 h, 23 µM sunitinib 24 h): 35%
- phosphorylation status of AMPKα-Thr172 and ACC-Ser79 (pACC-S79, pAMPK-T172): activated AMPK signaling

SMILES: NC(=O)c1ncn([C@@H]2O[C@H](CO)[C@@H](O)[C@H]2O)c1N [AICAR, aminoimidazole carboxamide ribonucleotide]
- attenuation of sunitinib-mediated ATP depletion (human iPSC-CMs [1]): Neither AICAR (Fig. 3A) nor metformin (Fig. 3E) attenuated
- change of beat rate from baseline (human iPSC-CMs [2]): ≤ 1%
- reduction of LDH release (human iPSC-CMs [4]; 1 mM pretreatment 3 h, 23 or 31 µM sunitinib 24 h): 80%
- maximal attenuation of caspase 3/7 cleavage (human iPSC-CMs [5]; 2 mM pretreatment 3 h): 108%
- attenuation of oxidized GSH (human iPSC-CMs [6]; 1 mM pretreatment 3 h, 31 µM sunitinib 24 h): 14%
- phosphorylation status of AMPKα-Thr172 and ACC-Ser79 (pACC-S79, pAMPK-T172): activated AMPK signaling
